Test results reported in ChEMBL document CHEMBL3885861, “Open TG-GATES”.

Species: Rattus norvegicus
Test: Open TG-GATES - Regimen: Single
Assay type: toxicity, organism-based, Sprague-Dawley
Parameters: regimen Single, gender Male, age 6 weeks
Details: in vivo, po, 0 mg/kg, route gavage, dose level Control; for APTT / Bas / Eos / Fbg / Hb / Ht / Lym / MCH / MCHC / MCV / Mono / Neu / PT / Plat / RBC / Ret / WBC: tissue Blood; for KIDNEY_L / KIDNEY_R / KIDNEY_TOTAL: tissue Kidney; for LIVER: tissue Liver; for A/G / ALP / ALT / AST / BUN / CRE / Ca / Cl / DBIL / GLC / IP / K / LDH / Na / PL / RALB / TBIL / TC / TG / TP / gamma-GTP: tissue Plasma

Compound `Cc1cccc(C)c1OCC(C)N` (configuration not stated) [MEXILETINE] has a TERMINAL_BW (3 h) of 222.3 g, an APTT (3 h) of 22.2 s and a Bas (3 h) of 0%. For the same compound, the Eos (3 h) was 0.8%, the Fbg (3 h) was 310.6 mg/dL and the Hb (3 h) was 12.8 g/dL. The Ht (3 h) was 39.4%, the Lym (3 h) was 80.6% and the MCH (3 h) was 21 pg. The MCHC (3 h) was 32.4%, the MCV (3 h) was 64.8 fL and the Mono (3 h) was 1.8%. The Neu (3 h) was 16.2%, the PT (3 h) was 16.1 s and the Plat (3 h) was 107.7 x10_4/uL. For the same compound, the RBC (3 h) was 608.6 x10_4/ul, the Ret (3 h) was 8.8% and the WBC (3 h) was 96.5 x10_2/uL. It also gave a KIDNEY_L (3 h) of 0.9 g, a KIDNEY_R (3 h) of 0.9 g and a KIDNEY_TOTAL (3 h) of 1.9 g. It also gave an LIVER (3 h) of 10.2 g, an A/G (3 h) of 1.2 and an ALP (3 h) of 1498 IU/L. For the same compound, the ALT (3 h) was 45.2 IU/L, the AST (3 h) was 77.4 IU/L and the BUN (3 h) was 13.6 mg/dL. It also gave a CRE (3 h) of 0.2 mg/dL, a Ca (3 h) of 10.6 mg/dL and a Cl (3 h) of 107 meq/L. For the same compound, the DBIL (3 h) was 0 mg/dL, the GLC (3 h) was 192 mg/dL and the IP (3 h) was 8.5 mg/dL. It also gave a K (3 h) of 4 meq/L, an LDH (3 h) of 181.2 IU/L and a Na (3 h) of 142 meq/L. The PL (3 h) was 132.4 mg/dL, the RALB (3 h) was 3 g/dL and the TBIL (3 h) was 0.016 mg/dL. For the same compound, the TC (3 h) was 77 mg/dL, the TG (3 h) was 62.8 mg/dL and the TP (3 h) was 5.5 g/dL. The gamma-GTP (3 h) was 1.6 IU/L, the TERMINAL_BW (6 h) was 218.2 g and the APTT (6 h) was 22.4 s. It also gave a Bas (6 h) of 0%, an Eos (6 h) of 0.8% and a Fbg (6 h) of 305.2 mg/dL. The Hb (6 h) was 12.9 g/dL, the Ht (6 h) was 39.5% and the Lym (6 h) was 78.4%. For the same compound, the MCH (6 h) was 20.6 pg, the MCHC (6 h) was 32.7% and the MCV (6 h) was 63.1 fL. It also gave a Mono (6 h) of 2.8%, a Neu (6 h) of 17.2% and a PT (6 h) of 16 s. It also gave a Plat (6 h) of 113.7 x10_4/uL, an RBC (6 h) of 627.6 x10_4/ul and a Ret (6 h) of 7.8%. For the same compound, the WBC (6 h) was 112.2 x10_2/uL, the KIDNEY_L (6 h) was 1 g and the KIDNEY_R (6 h) was 1 g. It also gave a KIDNEY_TOTAL (6 h) of 2 g, an LIVER (6 h) of 9.4 g and an A/G (6 h) of 1.3. For the same compound, the ALP (6 h) was 1119.6 IU/L, the ALT (6 h) was 37.4 IU/L and the AST (6 h) was 70.2 IU/L. For the same compound, the BUN (6 h) was 10.4 mg/dL, the CRE (6 h) was 0.2 mg/dL and the Ca (6 h) was 10.5 mg/dL. The Cl (6 h) was 105.2 meq/L, the DBIL (6 h) was 0 mg/dL and the GLC (6 h) was 192.4 mg/dL. For the same compound, the IP (6 h) was 9.2 mg/dL, the K (6 h) was 4.2 meq/L and the LDH (6 h) was 187.6 IU/L. It also gave a Na (6 h) of 140.6 meq/L, a PL (6 h) of 125 mg/dL and an RALB (6 h) of 3 g/dL. The TBIL (6 h) was 0.028 mg/dL, the TC (6 h) was 72 mg/dL and the TG (6 h) was 66.2 mg/dL. For the same compound, the TP (6 h) was 5.4 g/dL, the gamma-GTP (6 h) was 1.4 IU/L and the TERMINAL_BW (9 h) was 213.9 g. It also gave an APTT (9 h) of 22.8 s, a Bas (9 h) of 0% and an Eos (9 h) of 0.8%. The Fbg (9 h) was 311 mg/dL, the Hb (9 h) was 12.9 g/dL and the Ht (9 h) was 40.1%. The Lym (9 h) was 77.2%, the MCH (9 h) was 20.7 pg and the MCHC (9 h) was 32.2%. For the same compound, the MCV (9 h) was 64.1 fL, the Mono (9 h) was 2.4% and the Neu (9 h) was 19.6%. The PT (9 h) was 16.2 s, the Plat (9 h) was 105.6 x10_4/uL and the RBC (9 h) was 625.4 x10_4/ul. For the same compound, the Ret (9 h) was 8%, the WBC (9 h) was 86.8 x10_2/uL and the KIDNEY_L (9 h) was 0.9 g. It also gave a KIDNEY_R (9 h) of 0.9 g, a KIDNEY_TOTAL (9 h) of 1.8 g and an LIVER (9 h) of 8.7 g. The A/G (9 h) was 1.3, the ALP (9 h) was 1333.8 IU/L and the ALT (9 h) was 35.6 IU/L. For the same compound, the AST (9 h) was 66.2 IU/L, the BUN (9 h) was 12.2 mg/dL and the CRE (9 h) was 0.2 mg/dL. The Ca (9 h) was 10.5 mg/dL, the Cl (9 h) was 105.2 meq/L and the DBIL (9 h) was 0 mg/dL. For the same compound, the GLC (9 h) was 188.8 mg/dL, the IP (9 h) was 9.4 mg/dL and the K (9 h) was 4.2 meq/L. The LDH (9 h) was 133.6 IU/L, the Na (9 h) was 141.6 meq/L and the PL (9 h) was 122 mg/dL. It also gave an RALB (9 h) of 3 g/dL, a TBIL (9 h) of 0.02 mg/dL and a TC (9 h) of 66.2 mg/dL. The TG (9 h) was 53.2 mg/dL, the TP (9 h) was 5.5 g/dL and the gamma-GTP (9 h) was 1 IU/L. For the same compound, the TERMINAL_BW (24 h) was 223.6 g, the APTT (24 h) was 20.9 s and the Bas (24 h) was 0%. The Eos (24 h) was 1%, the Fbg (24 h) was 304 mg/dL and the Hb (24 h) was 13 g/dL. The Ht (24 h) was 40.2%, the Lym (24 h) was 78.4% and the MCH (24 h) was 20.6 pg. It also gave an MCHC (24 h) of 32.3%, an MCV (24 h) of 63.6 fL and a Mono (24 h) of 2%. It also gave a Neu (24 h) of 17.6%, a PT (24 h) of 16.4 s and a Plat (24 h) of 128.5 x10_4/uL. For the same compound, the RBC (24 h) was 632.6 x10_4/ul, the Ret (24 h) was 6.7% and the WBC (24 h) was 88.8 x10_2/uL. The KIDNEY_L (24 h) was 1 g, the KIDNEY_R (24 h) was 1 g and the KIDNEY_TOTAL (24 h) was 1.9 g. It also gave an LIVER (24 h) of 9.9 g, an A/G (24 h) of 1.3 and an ALP (24 h) of 1840.4 IU/L. The ALT (24 h) was 49.8 IU/L, the AST (24 h) was 73.8 IU/L and the BUN (24 h) was 15.6 mg/dL. The CRE (24 h) was 0.2 mg/dL, the Ca (24 h) was 10.7 mg/dL and the Cl (24 h) was 107 meq/L. For the same compound, the DBIL (24 h) was 0 mg/dL, the GLC (24 h) was 196.4 mg/dL and the IP (24 h) was 7.6 mg/dL. For the same compound, the K (24 h) was 4 meq/L, the LDH (24 h) was 166 IU/L and the Na (24 h) was 143.2 meq/L. The PL (24 h) was 130.6 mg/dL, the RALB (24 h) was 3.1 g/dL and the TBIL (24 h) was 0.008 mg/dL. The TC (24 h) was 70 mg/dL, the TG (24 h) was 74.6 mg/dL and the TP (24 h) was 5.6 g/dL. For the same compound, the gamma-GTP (24 h) was 1.8 IU/L.
